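Growth conditions: 96-well plates. Treatment: test compound, 48 hours, 5 concentrations. Analysis: linear interpolation between bracketing concentrations; unreached endpoints set to highest concentration. Here, GI50 denotes the concentration required for 50% inhibition of growth.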 Calls of active or inactive are those of the source. No stated cut-off is given here; in the data, active = GI50 up to about 1.1 µM and inactive = higher.
What was measured:
Test in all cases: NCI tumour cell line growth inhibition, 48 h
EKVX = tested on: EKVX
OVCAR-4 = tested on: OVCAR-4
LOX IMVI = tested on: LOX IMVI
COLO 205 = tested on: COLO 205
K562 = tested on: K562
SW-620 = tested on: SW-620
DMS-114 = tested on: DMS-114
SN12C = tested on: SN12C
NCI-H23 = tested on: NCI-H23
KM12 = tested on: KM12
A549 = tested on: A549
HCT-116 = tested on: HCT-116
NCI-H460 = tested on: NCI-H460
NCI/ADR-RES = tested on: NCI/ADR-RES
CAKI-1 = tested on: CAKI-1
A498 = tested on: A498
HOP-92 = tested on: HOP-92
UACC-257 = tested on: UACC-257
Malme-3M = tested on: Malme-3M
OVCAR-5 = tested on: OVCAR-5

Measured: GI50

CC12CP(=O)(c3ccccc3)CC1C2(Cl)Cl (stereo not given)
inactive: EKVX > 100 µM | OVCAR-4 > 100 µM | LOX IMVI > 100 µM | COLO 205 > 100 µM | K562 > 100 µM | SW-620 > 100 µM | DMS-114 > 100 µM | SN12C > 100 µM | NCI-H23 > 100 µM | KM12 > 100 µM | A549 > 100 µM | HCT-116 > 100 µM | NCI-H460 > 100 µM

Cc1ccc2c(c1)C(C1Cc3cccc(C)c3C1=O)OC2=O (stereo not given)
inactive: NCI/ADR-RES > 100 µM | EKVX 67.6 µM | OVCAR-4 75.3 µM | LOX IMVI 34.2 µM | COLO 205 > 100 µM | K562 84.3 µM | CAKI-1 > 100 µM | SW-620 > 100 µM | SN12C > 100 µM | NCI-H23 > 100 µM | KM12 96.2 µM | A498 46.2 µM | HOP-92 > 100 µM | A549 > 100 µM | UACC-257 > 100 µM | Malme-3M > 100 µM | HCT-116 > 100 µM | NCI-H460 > 100 µM | OVCAR-5 > 100 µM

COC(=O)[C@@H]1COC(C(C)(C)C)N1C(=O)C(c1ccccc1)c1ccccc1 (stereo not given in full)
inactive: NCI/ADR-RES 34 µM | EKVX 55.7 µM | OVCAR-4 43.2 µM | LOX IMVI 22.6 µM | COLO 205 61.7 µM | K562 19.5 µM | CAKI-1 > 100 µM | SW-620 43.8 µM | SN12C 32.1 µM | NCI-H23 81.7 µM | KM12 43.6 µM | A498 > 100 µM | HOP-92 37 µM | A549 65.8 µM | UACC-257 33.6 µM | Malme-3M > 100 µM | HCT-116 41.3 µM | NCI-H460 40.3 µM | OVCAR-5 > 100 µM

NC(=S)N/N=C/c1cn(CCCl)c2ccccc12
inactive: EKVX 14.7 µM | LOX IMVI 25 µM | COLO 205 46.5 µM | K562 8.05 µM | CAKI-1 18.7 µM | SW-620 43.6 µM | DMS-114 21.9 µM | SN12C 89.7 µM | NCI-H23 > 100 µM | KM12 32.7 µM | HOP-92 21.9 µM | A549 34.9 µM | UACC-257 22 µM | Malme-3M > 100 µM | HCT-116 27.4 µM | OVCAR-5 3.81 µM

COC(=O)C1=C(C(=O)OC)C2C(C)=CC(C)=CN2C(C#N)=C(SC)S1 (stereo not given)
inactive: EKVX 25.9 µM | LOX IMVI 17.9 µM | COLO 205 17.4 µM | K562 20.7 µM | CAKI-1 20.3 µM | SW-620 19.9 µM | DMS-114 22.6 µM | SN12C 21.4 µM | NCI-H23 17.7 µM | A549 37.2 µM | UACC-257 24.3 µM | Malme-3M 24.7 µM | HCT-116 15 µM | NCI-H460 > 100 µM | OVCAR-5 35.3 µM

Cn1c(=O)n2n(c1=O)[C@@H](c1ccccc1)[C@H]2c1ccccc1
inactive: NCI/ADR-RES > 100 µM | EKVX > 100 µM | OVCAR-4 > 100 µM | LOX IMVI > 100 µM | COLO 205 > 100 µM | K562 64.3 µM | CAKI-1 > 100 µM | SW-620 > 100 µM | SN12C > 100 µM | NCI-H23 65.6 µM | KM12 > 100 µM | A498 > 100 µM | HOP-92 > 100 µM | A549 > 100 µM | UACC-257 > 100 µM | Malme-3M > 100 µM | HCT-116 > 100 µM | NCI-H460 > 100 µM | OVCAR-5 > 100 µM

Nc1nc(N)nc(CCCCc2nc(N)nc(N)n2)n1
inactive: NCI/ADR-RES > 100 µM | EKVX > 100 µM | OVCAR-4 > 100 µM | LOX IMVI > 100 µM | COLO 205 > 100 µM | K562 > 100 µM | CAKI-1 > 100 µM | SW-620 > 100 µM | SN12C > 100 µM | NCI-H23 > 100 µM | KM12 > 100 µM | A498 > 100 µM | HOP-92 > 100 µM | A549 > 100 µM | UACC-257 > 100 µM | Malme-3M > 100 µM | HCT-116 > 100 µM | NCI-H460 > 100 µM | OVCAR-5 > 100 µM

c1csc(-c2nccc3c2[nH]c2ccccc23)c1
inactive: NCI/ADR-RES 22.2 µM | EKVX 46.6 µM | OVCAR-4 18.2 µM | LOX IMVI 20.5 µM | COLO 205 14.8 µM | K562 25.6 µM | CAKI-1 27.4 µM | SW-620 21 µM | SN12C 16.8 µM | NCI-H23 18.7 µM | KM12 19.5 µM | A498 15.3 µM | HOP-92 22.3 µM | A549 18.5 µM | UACC-257 21.2 µM | Malme-3M 24.2 µM | HCT-116 16.3 µM | NCI-H460 23.9 µM | OVCAR-5 28.2 µM

c1ccc(COCC2OC3c4ccccc4COC3C2OCc2ccccc2)cc1 (stereo not given)
inactive: EKVX > 100 µM | OVCAR-4 > 100 µM | COLO 205 > 100 µM | K562 57.5 µM | CAKI-1 76.9 µM | SW-620 > 100 µM | DMS-114 49.5 µM | SN12C > 100 µM | NCI-H23 94.8 µM | KM12 > 100 µM | HOP-92 19.4 µM | A549 > 100 µM | UACC-257 61.2 µM | Malme-3M > 100 µM | HCT-116 71.3 µM | NCI-H460 71.6 µM | OVCAR-5 > 100 µM

O=C1Nc2ccc(Br)cc2C1=Nc1cccnc1
inactive: NCI/ADR-RES 24.8 µM | EKVX 24.3 µM | OVCAR-4 7.23 µM | LOX IMVI 15.7 µM | COLO 205 67.3 µM | K562 20.1 µM | CAKI-1 20.7 µM | SW-620 17.8 µM | SN12C 18.4 µM | NCI-H23 20.7 µM | KM12 27.4 µM | A498 > 100 µM | HOP-92 > 100 µM | A549 48.4 µM | UACC-257 21.4 µM | Malme-3M 22.3 µM | HCT-116 20.1 µM | NCI-H460 > 100 µM | OVCAR-5 29.3 µM

CCCCC/C(=N\c1[nH]nnc1C(N)=O)OCC
inactive: NCI/ADR-RES > 100 µM | EKVX > 100 µM | OVCAR-4 > 100 µM | LOX IMVI > 100 µM | COLO 205 > 100 µM | K562 > 100 µM | CAKI-1 > 100 µM | SW-620 > 100 µM | SN12C > 100 µM | NCI-H23 > 100 µM | KM12 > 100 µM | A498 > 100 µM | HOP-92 26.2 µM | A549 > 100 µM | UACC-257 > 100 µM | Malme-3M > 100 µM | HCT-116 > 100 µM | NCI-H460 > 100 µM | OVCAR-5 > 100 µM

O=C(CSc1nnc(Cc2ccccc2)o1)Nc1cccc([N+](=O)[O-])c1
inactive: OVCAR-4 > 100 µM | LOX IMVI > 100 µM | COLO 205 > 100 µM | K562 > 100 µM | DMS-114 > 100 µM | SN12C > 100 µM | NCI-H23 > 100 µM | KM12 > 100 µM | A549 > 100 µM | UACC-257 > 100 µM | Malme-3M > 100 µM | HCT-116 > 100 µM | NCI-H460 > 100 µM | OVCAR-5 > 100 µM

CCCC[C@@H](C)/C=C1\CN2CCC[C@H]2[C@@](C)(OCc2ccccc2)[C@@H]1O
inactive: NCI/ADR-RES > 50 µM | EKVX > 31.1 µM | OVCAR-4 > 50 µM | LOX IMVI > 50 µM | COLO 205 > 50 µM | K562 > 29.9 µM | CAKI-1 > 50 µM | SW-620 > 50 µM | SN12C > 50 µM | NCI-H23 > 50 µM | KM12 > 13.8 µM | A498 > 47.8 µM | HOP-92 > 42 µM | A549 > 43.7 µM | UACC-257 > 17.6 µM | Malme-3M > 50 µM | HCT-116 > 50 µM | NCI-H460 > 16.7 µM | OVCAR-5 > 50 µM

O=[N+]([O-])/C(C(Cl)=C(Cl)Cl)=C(/Sc1ccccc1)N1CCCCC1
inactive: NCI/ADR-RES > 100 µM | EKVX > 91.4 µM | OVCAR-4 > 66.7 µM | LOX IMVI 8.45 µM | COLO 205 > 100 µM | K562 23.9 µM | CAKI-1 > 22.9 µM | SW-620 > 100 µM | SN12C > 100 µM | NCI-H23 > 100 µM | KM12 > 100 µM | A498 > 61.9 µM | HOP-92 > 100 µM | A549 > 93.5 µM | UACC-257 54.2 µM | Malme-3M 19.8 µM | HCT-116 37.8 µM | NCI-H460 > 100 µM | OVCAR-5 > 100 µM

Cc1ccc(N/C(Sc2ccccc2)=C(/C(Cl)=C(Cl)Cl)[N+](=O)[O-])c(C)c1
inactive: NCI/ADR-RES 23.7 µM | EKVX 22.1 µM | OVCAR-4 23.7 µM | LOX IMVI 14.5 µM | COLO 205 20.9 µM | K562 18 µM | CAKI-1 17 µM | SW-620 19.7 µM | SN12C 18.4 µM | NCI-H23 22.9 µM | KM12 17.3 µM | A498 21.8 µM | HOP-92 14 µM | A549 33.8 µM | UACC-257 18.2 µM | Malme-3M 17.5 µM | HCT-116 17.1 µM | NCI-H460 16.8 µM | OVCAR-5 17.8 µM

Reference: ChEMBL document CHEMBL1201862, “PubChem BioAssay data set” (2004)
